Here are results for 17 compounds from patent publication US20190119282A1, “IMIDAZOPYRIDAZINES USEFUL AS INHIBITORS OF THE PAR-2 SIGNALING PATHWAY” (Vertex Pharmaceuticals Incorporated, priority 2013, published 2019).

In assay [1] the test system is Thrombin-stimulated Ca2+ response in HT-29 cells. Description: Ca FLIPR TETRA assay, ANTAGONIST mode, stimulation with 1 U/mL Thrombin. It counts as cell-based, human. To be noted: for IC50: Homo sapiens, HT-29 cells, stimulation with 1 U/mL Thrombin. On the procedure: (§1) Example 60: Protocol for Testing PAR2 Compounds in ANTAGONIST Mode Using the Ca FLIPR^TETRA Assay (384 Well)
(§2) 23000 HT-29 cells (ATCC# HTB-38) were plated in 384-well black, transparent-flat bottom plates and incubated in 25 uL of 1% FBS/McCoy's media ON at 37° C. under an atmosphere of 5% CO2. The following day, 25 uL FLIPR calcium 5 Molecular Devices assay reagent (Cat: R-8186) was added. Plates were incubated at 37° C. and r. t. for 45 min and 15 min, respectively. Compounds dilutions were prepared in 100% DMSO using a Biomek FX and diluted 20-fold in HBSS and then 5.5 uL was added directly to the cells by the FLIPR^TETRA (10× dilution) using FLIPR Tetra Pipette tips, black, non-sterile, 384 Molecular Devices (Cat: 9000-0764).
(§3) A first read was performed to determine whether the test compounds on their own can activate Ca2+ responses.
(§4) The cells were incubated with the compounds for 30 min at r. t. and then read in ANTAGONIST mode in the same plate by stimulating with 6.2 uL of a fixed concentration of the activator: final concentrations: 8 μM SLIGKV, 1 U/mL Thrombin, 3.1 U/mL trypsin, or 0.6 μM UTP.

For assay [2], the system named is UTP-stimulated Ca2+ response in HT-29 cells. Description: Ca FLIPR TETRA assay, ANTAGONIST mode, stimulation with 0.6 μM UTP. It counts as cell-based, human. To be noted: Homo sapiens; HT-29 cells, stimulation with 0.6 μM UTP. On the procedure: as §1, §2, §3, §4
Assay [3] deals with T1, PAR2 (HT-29 cells, SLIGKV activation) (Homo sapiens, UniProt P55085).
T1 construct: host or cells: HT-29 cells
T1 sequence (P55085 26-397): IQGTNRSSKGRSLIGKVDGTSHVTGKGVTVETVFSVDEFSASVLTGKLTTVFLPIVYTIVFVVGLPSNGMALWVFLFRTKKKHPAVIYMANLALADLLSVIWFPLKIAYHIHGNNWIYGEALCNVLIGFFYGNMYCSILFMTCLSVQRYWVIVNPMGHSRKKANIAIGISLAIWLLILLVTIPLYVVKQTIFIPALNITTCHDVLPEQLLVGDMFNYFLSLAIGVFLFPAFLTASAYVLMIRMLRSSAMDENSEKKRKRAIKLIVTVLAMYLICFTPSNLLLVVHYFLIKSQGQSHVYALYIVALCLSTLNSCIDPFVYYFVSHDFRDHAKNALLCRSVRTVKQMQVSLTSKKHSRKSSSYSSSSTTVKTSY
Description: Ca FLIPR TETRA assay, ANTAGONIST mode, stimulation with 8 μM SLIGKV. It counts as cell-based. Conditions: HT-29 cells, stimulation with 8 μM SLIGKV. On the procedure:
as §1, §2, §3, §4

Assay [4] has as its target T2, PAR2 (HT-29 cells, trypsin activation) (Homo sapiens, UniProt P55085).
T2 construct: host or cells: HT-29 cells
T2 sequence (P55085 26-397): T1 sequence (P55085 26-397)
As to the kind of experiment: Ca FLIPR TETRA assay, ANTAGONIST mode, stimulation with 3.1 U/mL trypsin. Conditions: HT-29 cells, stimulation with 3.1 U/mL trypsin. It counts as cell-based. On the procedure:
as §1, §2, §3, §4

As a reminder, the IC50 is the concentration needed to halve the response being measured.

Turning to `CCc1cc(-c2ccc(F)cc2)nn2cc(C(=O)N3CCN(C(=O)OC(C)(C)C)CC3(C)C)nc12` [Compound I-4, tert-Butyl 4-[8-ethyl-6-(4-fluorophenyl)imidazo[1,2-b]pyridazine-2-carbonyl]-3,3-dimethyl-piperazine-1-carboxylate], the half-maximal inhibitory concentration (IC50) in assay [1] turned out to be 12 µM; in assay [2], 17 µM; in assay [3], 3 nM; in assay [4] it was 16 nM.

On to `Cc1cc(-c2ccc(F)cc2)nn2cc(C(=O)N3CCCCCC3)nc12` [Compound I-6, Azepan-1-yl-[6-(4-fluorophenyl)-8-methyl-imidazo[1,2-b]pyridazin-2-yl]methanone], for which the IC50 in assay [1] stood at 10 µM; in assay [2], 11 µM; in assay [3], 1280 nM; in assay [4], 2500 nM.

In the case of `Cc1cc(-c2ccc(F)cc2)nn2cc(C(=O)N3CCN(C(=O)OCc4ccccc4)[C@@H](C)C3)nc12` [Compound I-8, (S)-Benzyl 4-(6-(4-fluorophenyl)-8-methylimidazo[1,2-b]pyridazine-2-carbonyl)-2-methylpiperazine-1-carboxylate], the IC50 amounted to 43 µM in assay [1], 31 µM in assay [2], 180 nM in assay [3] and 690 nM in assay [4].

As to `COC(=O)[C@@H]1CCN(C(=O)c2cn3nc(-c4ccc(F)cc4)cc(C)c3n2)C[C@@H]1C` [Compound I-10, (3R,4R)-Methyl 1-(6-(4-fluorophenyl)-8-methylimidazo[1,2-b]pyridazine-2-carbonyl)-3-methylpiperidine-4-carboxylate], the IC50 in assay [1] amounted to 16 µM; in assay [2], 18 µM; in assay [3], 430 nM; in assay [4], 1100 nM.

`C[C@H]1CN(C(=O)c2cn3nc(-c4ccc(F)cc4)cc(C(F)(F)F)c3n2)CCN1C(=O)OCc1ccccn1` [Compound I-11, 2-Pyridylmethyl (2S)-4-[6-(4-fluorophenyl)-8-(trifluoromethyl)-imidazo-[1,2-b]pyridazine-2-carbonyl]-2-methyl-piperazine-1-carboxylate]: the IC50 is 9.6 µM in assay [1], more than 5 µM in assay [2], 65 nM in assay [3] and 300 nM in assay [4].

`C[C@H]1CN(C(=O)c2cn3nc(-c4ccc(F)cc4)cc(C(F)(F)F)c3n2)CCN1C(=O)OCc1cccnc1` [Compound I-12, 3-Pyridylmethyl (2S)-4-[6-(4-fluorophenyl)-8-(trifluoromethyl)-imidazo-[1,2-b]pyridazine-2-carbonyl]-2-methyl-piperazine-1-carboxylate]: the IC50 in assay [1] amounted to 7.7 µM; in assay [2], 9.2 µM; in assay [3], 84 nM; in assay [4], 490 nM.

For the compound `C[C@H]1CN(C(=O)c2cn3nc(-c4ccc(F)cc4)ccc3n2)CCN1C(=O)[C@H](O)CC(C)(C)C` [Compound I-13, (2R)-1-[(2S)-4-[6-(4-Fluorophenyl)imidazo[1,2-b]pyridazine-2-carbonyl]-2-methyl-piperazin-1-yl]-2-hydroxy-4,4-dimethyl-pentan-1-one], the IC50 in assay [1] amounted to 13 µM; in assay [2], 13 µM; in assay [3], 480 nM; in assay [4], 2400 nM.

With `C[C@H]1CN(C(=O)c2cn3nc(-c4ccc(F)cc4)cc(C4CC4)c3n2)CCN1C(=O)[C@H](O)CC(C)(C)C` [Compound I-14, (2R)-1-[(2S)-4-[8-Cylopropyl-6-(4-fluorophenyl)imidazo[1,2-b]pyridazine-2-carbonyl]-2-methyl-piperazin-1-yl]-2-hydroxy-4,4-dimethyl-pentan-1-one], the IC50 in assay [1] was more than 5 µM; in assay [2], more than 5 µM; in assay [3], 0.5 nM; in assay [4] it was 0.8 nM.

`C[C@H]1CN(C(=O)c2cn3nc(-c4ccc(F)cc4)cc(C(F)(F)F)c3n2)CCN1C(=O)[C@@H](CC1CCCCC1)NC(=O)OC(C)(C)C` [Compound I-15, tert-Butyl N-[(1R)-1-(cyclohexylmethyl)-2-[(2S)-4-[6-(4-fluorophenyl)-8-(trifluoromethyl)imidazo[1,2-b]pyridazine-2-carbonyl]-2-methyl-piperazin-1-yl]-2-oxo-ethyl]carbamate]: the half-inhibitory concentration (IC50) in assay [1] was more than 50 µM; in assay [2], more than 50 µM; in assay [3], 47 nM; in assay [4], 58 nM.

On to `C[C@H]1CN(C(=O)c2cn3nc(-c4ccc(F)cc4)cc(C(F)(F)F)c3n2)CCN1C(=O)[C@H](N)CC1CCCCC1` [Compound I-16, (2R)-2-amino-3-cyclohexyl-1-[(2S)-4-[6-(4-fluorophenyl)-8-(trifluoromethyl)imidazo[1,2-b]pyridazine-2-carbonyl]-2-methyl-piperazin-1-yl]propan-1-one], for which the IC50 in assay [1] amounted to 11 µM; in assay [2], 11 µM; in assay [3], 37 nM; in assay [4] it was 280 nM.

For the compound `C=CC(=O)N1CCN(C(=O)c2cn3nc(-c4ccc(F)cc4)cc(C(C)C)c3n2)C[C@@H]1C` [Compound I-17, 1-[(2S)-4-[6-(4-Fluorophenyl)-8-isopropyl-imidazo[1,2-b]pyridazine-2-carbonyl]-2-methyl-piperazin-1-yl]prop-2-en-1-one], the IC50 in assay [1] stood at 20 µM; in assay [2], 19 µM; in assay [3], 41 nM; in assay [4], 780 nM.

On to `CC(C)c1cc(Cl)nn2cc(C(=O)N3CCN(C(=O)OC(C)(C)C)CC3(C)C)nc12` [Compound I-18, tert-Butyl 4-(6-chloro-8-isopropyl-imidazo[1,2-b]pyridazine-2-carbonyl)-3,3-dimethyl-piperazine-1-carboxylate], for which the IC50 in assay [1] was found to be 20 µM; in assay [2], 18 µM; in assay [3] it was 2800 nM; in assay [4] it was 6800 nM.

Regarding `CC(C)c1cc(-c2ccc(F)cc2)nn2cc(C(=O)N3CCN(C(=O)C4(O)CCC4)CC3(C)C)nc12` [Compound I-19, [6-(4-Fluorophenyl)-8-isopropyl-imidazo[1,2-b]pyridazin-2-yl]-[4-(1-hydroxycyclobutanecarbonyl)-2,2-dimethyl-piperazin-1-yl]methanone], the “Thrombin % @ concentration” value in assay [1] (@ 50 (μM)) came to 62% @ 50. Moreover, the IC50 in assay [2] was 50 µM; in assay [3], 25 nM; in assay [4] it was 56 nM.

In the case of `CC(C)(O)C(=O)N1CCN(C(=O)c2cn3nc(-c4ccc(F)cc4)cc(C4CC4)c3n2)C(C)(C)C1` [Compound I-20, 1-[4-[8-cyclopropyl-6-(4-fluorophenyl)imidazo[1,2-b]pyridazine-2-carbonyl]-3,3-dimethyl-piperazin-1-yl]-2-hydroxy-2-methyl-propan-1-one], the IC50 in assay [1] was 3.6 µM; in assay [2], 3 µM; in assay [3] it was 280 nM; in assay [4], 1020 nM.

As for `CC1(C)CN(C(=O)C2(O)CCC2)CCN1C(=O)c1cn2nc(-c3ccc(F)cc3)cc(C3CC3)c2n1` [Compound I-21, [8-cyclopropyl-6-(4-fluorophenyl)imidazo[1,2-b]pyridazin-2-yl]-[4-(1-hydroxycyclobutanecarbonyl)-2,2-dimethyl-piperazin-1-yl]methanone], the IC50 in assay [1] is more than 50 µM; in assay [2] it was 64 µM; in assay [3], 19 nM; in assay [4], 29 nM.

Regarding `CC(C)C(O)C(=O)N1CCN(C(=O)c2cn3nc(-c4ccc(F)cc4)cc(C4CC4)c3n2)C(C)(C)C1` (centres unmarked) [Compound I-22, 1-[4-[8-cyclopropyl-6-(4-fluorophenyl)imidazo[1,2-b]pyridazine-2-carbonyl]-3,3-dimethyl-piperazin-1-yl]-2-hydroxy-3-methyl-butan-1-one], the concentration for half-maximal inhibition (IC50) in assay [1] is 21 µM; in assay [2] it was 25 µM; in assay [3] it was 7 nM; in assay [4], 14 nM.

For the compound `CC(C)c1cc(-c2ccc(F)cc2)nn2cc(C(=O)N3CCN(C(=O)OC(C)(C)C)CC34COC4)nc12` [Compound I-23, tert-butyl 5-[6-(4-fluorophenyl)-8-isopropyl-imidazo[1,2-b]pyridazine-2-carbonyl]-2-oxa-5,8-diazaspiro[3.5]nonane-8-carboxylate], the IC50 in assay [1] was more than 50 µM; in assay [2] it was more than 50 µM; in assay [3], 130 nM; in assay [4] it was 300 nM.
